Data on 17 compounds can be found in ChEMBL document CHEMBL4680196, “Structurally novel PI3Kδ/γ dual inhibitors characterized by a seven-membered spirocyclic spacer: The SARs investigation and PK evaluation” (Eur J Med Chem, 2020).

In series [1] the test system is SU-DHL-6. Put plainly: Antiproliferative activity against human SU-DHL-6 cells assessed as reduction in cell viability measured after 72 hrs by MTT assay. It is filed as functional. (In general: Tetrazolium assays rely on reduction of a dye to a coloured formazan, in cell work by metabolically active cells.)
In series [2] the target is PI3-kinase p110-alpha/p85-alpha (Homo sapiens, UniProt P42336).
Chain of PI3-kinase p110-alpha/p85-alpha (P27986 whole entry, canonical isoform): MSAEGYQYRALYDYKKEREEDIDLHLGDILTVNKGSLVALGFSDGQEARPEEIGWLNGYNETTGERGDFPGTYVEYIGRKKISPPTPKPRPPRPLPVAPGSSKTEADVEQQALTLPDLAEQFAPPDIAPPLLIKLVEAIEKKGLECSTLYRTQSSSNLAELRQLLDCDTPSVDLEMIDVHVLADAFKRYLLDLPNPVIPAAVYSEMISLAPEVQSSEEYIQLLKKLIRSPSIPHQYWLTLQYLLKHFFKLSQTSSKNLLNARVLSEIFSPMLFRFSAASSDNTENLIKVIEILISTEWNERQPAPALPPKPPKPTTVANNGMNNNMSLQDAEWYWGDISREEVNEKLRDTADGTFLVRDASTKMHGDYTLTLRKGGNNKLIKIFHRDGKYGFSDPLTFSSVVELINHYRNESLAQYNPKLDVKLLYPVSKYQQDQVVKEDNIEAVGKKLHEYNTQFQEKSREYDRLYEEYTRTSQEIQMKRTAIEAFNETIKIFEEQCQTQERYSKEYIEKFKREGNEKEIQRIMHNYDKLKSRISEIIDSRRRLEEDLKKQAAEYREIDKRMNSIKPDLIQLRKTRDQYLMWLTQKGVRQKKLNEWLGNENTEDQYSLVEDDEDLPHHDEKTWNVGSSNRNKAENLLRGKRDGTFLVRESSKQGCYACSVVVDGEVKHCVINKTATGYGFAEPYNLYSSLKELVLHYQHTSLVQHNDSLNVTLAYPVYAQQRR
Chain of PI3-kinase p110-alpha/p85-alpha (P42336 whole entry, canonical isoform): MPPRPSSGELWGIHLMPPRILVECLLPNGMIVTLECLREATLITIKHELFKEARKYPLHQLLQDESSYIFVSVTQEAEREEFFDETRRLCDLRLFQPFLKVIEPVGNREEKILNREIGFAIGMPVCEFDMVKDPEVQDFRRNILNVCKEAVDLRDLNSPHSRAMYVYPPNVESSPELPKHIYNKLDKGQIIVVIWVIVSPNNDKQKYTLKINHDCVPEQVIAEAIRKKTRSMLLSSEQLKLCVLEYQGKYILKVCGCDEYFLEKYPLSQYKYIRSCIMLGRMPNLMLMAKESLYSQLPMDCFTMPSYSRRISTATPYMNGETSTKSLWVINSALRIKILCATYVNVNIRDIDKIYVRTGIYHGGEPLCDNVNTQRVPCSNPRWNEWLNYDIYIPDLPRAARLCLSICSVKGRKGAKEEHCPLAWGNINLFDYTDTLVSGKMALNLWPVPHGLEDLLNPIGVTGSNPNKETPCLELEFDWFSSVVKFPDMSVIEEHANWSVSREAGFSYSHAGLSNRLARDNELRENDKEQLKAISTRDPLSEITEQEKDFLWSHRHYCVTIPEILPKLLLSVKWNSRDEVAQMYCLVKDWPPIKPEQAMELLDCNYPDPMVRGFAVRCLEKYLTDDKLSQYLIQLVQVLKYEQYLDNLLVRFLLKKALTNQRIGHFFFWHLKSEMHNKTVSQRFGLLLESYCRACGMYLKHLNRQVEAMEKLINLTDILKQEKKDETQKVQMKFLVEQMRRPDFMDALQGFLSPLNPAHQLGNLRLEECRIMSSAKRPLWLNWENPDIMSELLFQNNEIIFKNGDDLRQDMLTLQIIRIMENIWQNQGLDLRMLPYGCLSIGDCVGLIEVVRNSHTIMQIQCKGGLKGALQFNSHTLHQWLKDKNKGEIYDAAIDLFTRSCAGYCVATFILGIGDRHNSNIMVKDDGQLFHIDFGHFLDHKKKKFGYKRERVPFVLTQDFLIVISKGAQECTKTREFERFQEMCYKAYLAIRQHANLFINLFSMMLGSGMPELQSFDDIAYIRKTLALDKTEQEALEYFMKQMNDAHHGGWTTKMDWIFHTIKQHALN
In series [3] the target is Phosphatidylinositol 3-kinase regulatory subunit beta/Phosphatidylinositol 4,5-bisphosphate 3-kinase catalytic subunit beta isoform (Homo sapiens, UniProt P42338).
Chain of Phosphatidylinositol 3-kinase regulatory subunit beta/Phosphatidylinositol 4,5-bisphosphate 3-kinase catalytic subunit beta isoform (P42338 whole entry, canonical isoform): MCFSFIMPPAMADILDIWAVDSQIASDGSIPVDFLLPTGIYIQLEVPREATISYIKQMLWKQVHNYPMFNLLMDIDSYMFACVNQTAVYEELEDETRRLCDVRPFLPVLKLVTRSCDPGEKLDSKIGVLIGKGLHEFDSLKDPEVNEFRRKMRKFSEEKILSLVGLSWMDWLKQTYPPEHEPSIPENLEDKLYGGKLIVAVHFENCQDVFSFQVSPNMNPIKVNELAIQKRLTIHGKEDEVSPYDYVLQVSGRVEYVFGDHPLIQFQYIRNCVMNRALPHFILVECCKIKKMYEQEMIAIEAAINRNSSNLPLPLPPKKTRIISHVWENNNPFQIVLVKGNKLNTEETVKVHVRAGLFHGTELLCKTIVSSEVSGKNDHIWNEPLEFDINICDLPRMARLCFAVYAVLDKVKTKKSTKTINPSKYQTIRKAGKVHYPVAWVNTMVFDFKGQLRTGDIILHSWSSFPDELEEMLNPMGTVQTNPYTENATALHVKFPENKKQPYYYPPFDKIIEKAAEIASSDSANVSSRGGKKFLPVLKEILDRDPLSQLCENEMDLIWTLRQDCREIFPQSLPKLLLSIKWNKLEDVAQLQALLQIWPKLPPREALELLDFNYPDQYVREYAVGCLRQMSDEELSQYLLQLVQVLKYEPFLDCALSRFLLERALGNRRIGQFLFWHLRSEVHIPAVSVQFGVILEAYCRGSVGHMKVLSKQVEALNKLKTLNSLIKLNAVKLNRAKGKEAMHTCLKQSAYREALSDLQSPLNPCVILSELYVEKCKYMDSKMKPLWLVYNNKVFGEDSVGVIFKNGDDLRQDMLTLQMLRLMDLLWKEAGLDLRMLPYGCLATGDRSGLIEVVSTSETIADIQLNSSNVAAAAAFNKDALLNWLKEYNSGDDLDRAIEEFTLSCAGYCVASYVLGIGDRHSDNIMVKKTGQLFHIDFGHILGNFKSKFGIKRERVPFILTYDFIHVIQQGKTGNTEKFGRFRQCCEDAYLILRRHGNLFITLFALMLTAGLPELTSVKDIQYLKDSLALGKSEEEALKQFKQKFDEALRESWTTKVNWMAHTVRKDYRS
Chain of Phosphatidylinositol 3-kinase regulatory subunit beta/Phosphatidylinositol 4,5-bisphosphate 3-kinase catalytic subunit beta isoform (O00459 whole entry, further chain, canonical isoform): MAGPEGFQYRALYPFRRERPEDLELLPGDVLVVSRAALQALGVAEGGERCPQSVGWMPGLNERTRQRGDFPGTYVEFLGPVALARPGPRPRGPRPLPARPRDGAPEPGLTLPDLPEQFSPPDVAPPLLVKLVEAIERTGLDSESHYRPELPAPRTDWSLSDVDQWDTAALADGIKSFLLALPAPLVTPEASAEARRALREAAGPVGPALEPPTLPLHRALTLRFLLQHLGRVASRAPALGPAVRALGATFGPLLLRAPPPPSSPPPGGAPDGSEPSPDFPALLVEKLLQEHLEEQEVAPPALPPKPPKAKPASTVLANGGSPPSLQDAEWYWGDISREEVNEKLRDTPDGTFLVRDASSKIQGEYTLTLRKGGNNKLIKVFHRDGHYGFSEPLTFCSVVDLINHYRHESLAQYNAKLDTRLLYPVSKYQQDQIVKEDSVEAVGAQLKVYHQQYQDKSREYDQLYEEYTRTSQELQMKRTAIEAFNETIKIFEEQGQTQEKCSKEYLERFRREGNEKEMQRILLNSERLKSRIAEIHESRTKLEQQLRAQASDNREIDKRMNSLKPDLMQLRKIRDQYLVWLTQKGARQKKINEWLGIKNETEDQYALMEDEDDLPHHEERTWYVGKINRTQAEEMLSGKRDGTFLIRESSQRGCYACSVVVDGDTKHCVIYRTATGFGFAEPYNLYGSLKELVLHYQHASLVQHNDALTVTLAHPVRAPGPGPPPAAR
For series [4], the target named is Phosphatidylinositol 4,5-bisphosphate 3-kinase catalytic subunit gamma isoform (Homo sapiens, UniProt P48736).
The species named for series [5] is Homo sapiens.
The species entered for series [6] is Homo sapiens. This is another data set of the same source.
The species named for series [7] is Homo sapiens. The source holds these as a separate data set.
For series [8], the target named is PI3-kinase p110-delta/p85-alpha (Homo sapiens, UniProt O00329).
Chain of PI3-kinase p110-delta/p85-alpha (P27986 whole entry): as the sequence (P27986 whole entry, canonical isoform) above
Chain of PI3-kinase p110-delta/p85-alpha (O00329 whole entry): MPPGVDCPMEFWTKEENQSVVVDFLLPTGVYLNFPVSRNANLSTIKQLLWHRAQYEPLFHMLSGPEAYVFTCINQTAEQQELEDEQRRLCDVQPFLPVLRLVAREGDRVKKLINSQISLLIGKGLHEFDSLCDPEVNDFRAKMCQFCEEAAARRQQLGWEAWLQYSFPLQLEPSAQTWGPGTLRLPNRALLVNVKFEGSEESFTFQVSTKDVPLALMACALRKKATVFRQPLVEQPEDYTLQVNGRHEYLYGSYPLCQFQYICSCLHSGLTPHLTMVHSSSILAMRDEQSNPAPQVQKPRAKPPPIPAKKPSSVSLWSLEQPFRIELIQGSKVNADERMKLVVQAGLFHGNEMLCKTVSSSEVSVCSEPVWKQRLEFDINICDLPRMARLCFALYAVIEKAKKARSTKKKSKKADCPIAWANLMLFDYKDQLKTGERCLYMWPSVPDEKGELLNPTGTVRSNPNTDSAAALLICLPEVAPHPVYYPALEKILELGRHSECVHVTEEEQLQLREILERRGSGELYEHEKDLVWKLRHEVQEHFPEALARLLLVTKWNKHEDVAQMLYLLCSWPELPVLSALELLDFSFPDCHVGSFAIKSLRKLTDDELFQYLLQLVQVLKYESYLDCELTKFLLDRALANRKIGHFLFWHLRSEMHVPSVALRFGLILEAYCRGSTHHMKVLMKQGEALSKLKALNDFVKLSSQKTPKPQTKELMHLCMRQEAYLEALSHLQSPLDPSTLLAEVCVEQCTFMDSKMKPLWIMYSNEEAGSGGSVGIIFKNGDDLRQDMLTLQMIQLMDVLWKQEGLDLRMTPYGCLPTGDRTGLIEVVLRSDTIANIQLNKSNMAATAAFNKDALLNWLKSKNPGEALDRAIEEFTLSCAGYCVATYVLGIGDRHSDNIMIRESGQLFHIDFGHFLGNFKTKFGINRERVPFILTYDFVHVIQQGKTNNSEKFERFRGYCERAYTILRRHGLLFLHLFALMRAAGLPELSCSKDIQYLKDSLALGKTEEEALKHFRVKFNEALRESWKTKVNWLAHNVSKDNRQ
The test system of series [9] is SU-DHL-6. Put plainly: Inhibition of PI3K in human SU-DHL-6 cells assessed as reduction in AKT phosphorylation at Ser473 residues after 2 hrs by Western blot analysis. Type of series: cell-based. (A western blot detects proteins with antibodies after separation by electrophoresis.)
Series [10] concerns SU-DHL-6. Kind of series: Inhibition of PI3K in human SU-DHL-6 cells assessed as reduction in S6K1 phosphorylation at Thr389 residues after 2 hrs by Western blot analysis. Type of series: cell-based.
Series [11] can be described thus: Elimination half life in Sprague-Dawley rat at 5 mg/kg, iv by UHPLC-LC/MS analysis. To be noted: in vivo, read-out: beta t1/2 (converted). It is filed as ADME, organism-based.
The nature of series [12]: AUC (0 to t) in Sprague-Dawley rat at 5 mg/kg, iv by UHPLC-LC/MS analysis. It is filed as ADME, organism-based. More on the design: dose 5 mg/kg. The following applies: in vivo.
The nature of series [13]: Volume of distribution at steady state in Sprague-Dawley rat at 5 mg/kg, iv or po by UHPLC-LC/MS analysis. Type of series: ADME, organism-based. The following applies: in vivo, read-out: Vdss.
Series [14] in a line: Clearance in Sprague-Dawley rat at 5 mg/kg, […] by UHPLC-LC/MS analysis. Type of series: ADME, organism-based. To be noted: in vivo.
Series [15] is described as follows: Oral bioavailability in Sprague-Dawley rat at 5 mg/kg by UHPLC-LC/MS analysis. Type of series: ADME, organism-based. The following applies: in vivo.
Series [16] is described as follows: Elimination half life in Sprague-Dawley rat at 5 mg/kg, po by UHPLC-LC/MS analysis. To be noted: in vivo, read-out: beta t1/2 (converted). It is filed as ADME, organism-based.
Series [17] can be described thus: AUC (0 to t) in Sprague-Dawley rat at 5 mg/kg, po by UHPLC-LC/MS analysis. Type of series: ADME, organism-based. Also on record: dose 5 mg/kg. To be noted: in vivo.

Broadly, the GI50 is the concentration that inhibits growth by half. Broadly, the IC50 is the concentration that gives 50% inhibition. Low readings indicate greater potency, high ones weaker potency. As for `O=c1c2c(Cl)cccc2nc([C@@H]2CC3(CC3)CN2c2ncnc3[nH]cnc23)n1-c1ccccc1`, in the series with SU-DHL-6 [1], the GI50 stood at 601 nM. The IC50 in series [2] is above 5000 nM; in series [3] it was 2640 nM; in series [4] it was 113 nM; in series [8] it was 13 nM. For the same compound, the values for the Ratio IC50 in the series listed under Homo sapiens [5], in the series listed under Homo sapiens [6] and in the series filed under Homo sapiens [7] were above 385, 203 and 9, respectively.
`Cc1nc(N)nc(N2CC3(CC3)C[C@H]2c2nc3cccc(F)c3c(=O)n2-c2ccccc2)c1C#N`: the GI50 in the series on SU-DHL-6 [1] was 1040 nM. The compound also came in with an IC50 in series [8] of 9.4 nM.
The term AUC(0-t) denotes the area under the concentration-time curve up to a stated or last time point. Read a high AUC(0-t) as more exposure. As a reminder, the CL/F is the apparent clearance, not corrected for the fraction that reaches the circulation. By bioavailability is commonly meant the share of a dose that reaches the circulation, judged against a reference dose that is usually intravenous. Read a high bioavailability as good availability. Turning to `N#Cc1c(N)nc(N)nc1N1CC2(CC2)C[C@H]1c1nc2cccc(Cl)c2c(=O)n1-c1ccccc1`, in the series with SU-DHL-6 [1], the concentration for 50% growth inhibition (GI50) was 33 nM. Besides, the IC50 in series [2] came out at 221 nM; in series [3] it was 174 nM; in series [4] it was 4.3 nM; in series [8], 1 nM. The Ratio IC50 in the series listed under Homo sapiens [5] is 221; in the series listed under Homo sapiens [6], 174; in the series filed under Homo sapiens [7], 4. Also, the inhibition result with SU-DHL-6 [9] and in the series on SU-DHL-6 [10] was “Dose-dependent effect” throughout. Besides, the half-life was 3 h in series [11] and 14.3 h in series [16]. Besides, the AUC(0-t) in [12] was 5580 ng·h/mL; in series [17], 4880 ng·h/mL. Besides, the Vd in series [13] came out at 3.9 L/kg. In addition, the apparent clearance CL/F in series [14] is 15 mL/min/kg. Besides, the bioavailability in series [15] worked out at 87.5%.
On to `N#Cc1c(N)ncnc1N1CC2(CC2)C[C@H]1c1nc2cccc(F)c2c(=O)n1-c1ccccc1`, for which the GI50 with SU-DHL-6 [1] was 867 nM. In series [8], this compound gave an IC50 of 15 nM.
The like results for `N#Cc1c(N)ncnc1N1CC2(CC2)C[C@H]1c1nc2ccc(F)cc2c(=O)n1-c1ccccc1` were, in that order, 945 nM and 9.6 nM.
With `N#Cc1c(N)nc(N)nc1N1CC2(CC2)C[C@H]1c1nc2cccc(F)c2c(=O)n1-c1ccccc1`, the GI50 in the series with SU-DHL-6 [1] is 53 nM. In series [8], this compound yielded an IC50 of 5.4 nM.
In the case of `N#Cc1c(N)ncnc1N1CC2(CC2)C[C@H]1c1nc2cccc(Cl)c2c(=O)n1-c1ccccc1`, the GI50 in the series on SU-DHL-6 [1] came to 3420 nM. The IC50 in series [8] is 3.7 nM.
In turn, `O=c1c2c(Cl)cccc2nc([C@@H]2CC3(CC3)CN2c2nc(Cl)nc3[nH]cnc23)n1-c1ccccc1` showed a half-inhibitory concentration (IC50) in series [8] of 406 nM.
In the case of `O=c1c2c(F)cccc2nc([C@@H]2CC3(CC3)CN2c2ncnc3[nH]cnc23)n1-c1ccccc1`, in the series on SU-DHL-6 [1], the GI50 worked out at 813 nM. Besides, 43 nM corresponded to half-maximal inhibition in series [8] (IC50).
`CC[C@H](Nc1ncnc2[nH]cnc12)c1nc2cccc(F)c2c(=O)n1-c1ccccc1` [IDELALISIB]: the GI50 in the series with SU-DHL-6 [1] came to 34 nM.
For `O=c1c2c(F)cccc2nc([C@@H]2CC3(CC3)CN2c2ncnc3[nH]cnc23)n1Cc1ccccc1`, half-maximal inhibition in series [8] (IC50) was put at 813 nM. In other words, the sub-micromolar range.
As for `Cc1nc(N)nc(N2CC3(CC3)C[C@H]2c2nc3cccc(Cl)c3c(=O)n2-c2ccccc2)c1C#N`, the GI50 in the series with SU-DHL-6 [1] turned out to be 716 nM. For the same compound, in series [8], 9.6 nM corresponded to half-maximal inhibition (IC50).
For the compound `O=c1c2c(Cl)cccc2nc([C@@H]2CC3(CC3)CN2c2nc(F)nc3[nH]cnc23)n1-c1ccccc1`, the GI50 with SU-DHL-6 [1] turned out to be 2810 nM. Moreover, in series [8], the IC50 was determined as 38 nM.
For the compound `Cc1cccc2nc([C@@H]3CC4(CC4)CN3c3ncnc4[nH]cnc34)n(-c3ccccc3)c(=O)c12`, the GI50 in the series on SU-DHL-6 [1] was determined as 107 nM. This compound also displayed a concentration for half-maximal inhibition (IC50) in [8] of 16 nM.
Regarding `O=c1c2c(F)cccc2nc([C@@H]2CC3(CC3)CN2c2ncnc3[nH]cnc23)n1C1CCCCC1`, half-maximal inhibition in [8] (IC50) was put at 444 nM. In other words, the sub-micromolar range.
For the compound `O=c1c2cc(F)ccc2nc([C@@H]2CC3(CC3)CN2c2ncnc3[nH]cnc23)n1-c1ccccc1`, in the series with SU-DHL-6 [1], the 50% growth inhibitory concentration (GI50) turned out to be 937 nM. The compound further gave an IC50 in [8] of 48 nM.
In the case of `O=c1c2c(F)cccc2nc([C@@H]2CC3(CC3)CN2c2ncnc3[nH]cnc23)n1C1CCCC1`, half-maximal inhibition in series [8] (IC50) required 396 nM.
